Structures can show the parent of a compound that is named as a salt.
Tests used:
TNF-α = assay: Induction of TNF-α using fresh human whole blood (WB); format: cell-based; settings: three donors, overnight incubation, response as % of 2 μM resiquimod control, read-out: mean pEC50 for TNF-α (converted)
Experimental: (§1) Assay for the Induction of Interferon-[…] and TNF-[…] Using Fresh Human Whole Blood (WB)
(§2) Compounds were prepared at 100× required concentration in DMSO in flat-bottom microtitre plates at a volume of 1.5 μL. Columns 1-10 contained a 1 in 4 serial dilution of the test compound. Included on each plate was a serial dilution of the TLR7/8 agonist resiquimod as a standard and Column 11 contained 1.5 μl of 200 μM resiquimod (giving a 2 μM final concentration, used to define the approximate maximal response to resiquimod). Each compound was assayed in duplicate for each donor.
(§3) Blood samples from three human donors were collected into sodium heparin (10 U/ml). 150 μl of whole Blood was dispensed into Col 1 to 11 of assay plates containing 1.5 μl of test compound or standard in DMSO. Plates were placed in an incubator overnight (37° C., 95% air, 5% CO2). Following the overnight incubation, plates were removed from the incubator & mixed on an orbital shaker for approximately 1 minute. 100 μl of 0.9% saline was added to each well and the plates mixed again on an orbital shaker. Plates were then centrifuged (2500 rpm, 10 mins), after which a sample of plasma was removed using a Biomek FX and assayed for both IFN-α and TNF-α using the MSD (Mesoscale Discovery) electrochemiluminescence assay platform. The IFN-α assay was carried out similarly to that described above. The TNF-α assay was carried out as per kit instructions (Cat No K111BHB).
(§4) Cytokine released was expressed as a percentage of the 2 μM resiquimod control (column 11). This percentage was plotted against compound concentration and the pEC50 for the response determined by non-linear least squares curve fitting. For the IFN-α responses, generally a 4 parameter logistic model was selected. For the TNF-α responses where a clear maximum response was obtained (i.e. a well defined plateau in the response was observed) then a 4 parameter model was generally used. If the upper asymptote of the curve wasn't well defined then the curve fitting was generally constrained to a maximal response of 100% (i.e. to the response to 2 μM resiquimod) or to the response of the highest concentration tested if this was greater than the resiquimod response. Some curves were bell shaped for one or both cytokines and the cytokine data on the down slope of the bell shaped response (i.e. concentrations above those giving the maximal response) were generally excluded from the fit, usually with the exception of the concentration immediately above the peak response. Curve fitting thus concentrated on the up slope of the dose response curve.

IFN-α = assay: Induction of interferon-α using fresh human whole blood (WB); format: cell-based; settings: three donors, overnight incubation, response as % of 2 μM resiquimod control, read-out: mean pEC50 for IFN-α (converted)
Experimental: as §1, §2, §3, §4

Row | EC50 (TNF-α) [µM] | EC50 (IFN-α) [µM] | Compound
1 | ≥ 5.01 | ≤ 5.01 | CCCCc1nc(N)c2[nH]cc(CCCCCN3CC[C@H](F)C3)c2n1 [Example 25, (S)-2-Butyl-7-(5-(3-fluoropyrrolidin-1-yl)pentyl)-5H-pyrrolo[3,2-d]pyrimidin-4-amine]
2 | ≥ 5.01 | ≤ 5.01 | CCCCc1nc(N)c2[nH]c(C)c(CCCCCN3CC[C@@H](F)C3)c2n1 [Example 41, (R)-2-Butyl-7-(5-(3-fluoropyrrolidin-1-yl)pentyl)-6-methyl-5H-pyrrolo[3,2-d]pyrimidin-4-amine]
3 | ≥ 5.01 | ≤ 5.01 | CCCCc1nc(N)c2[nH]cc(CCCCCCN3CCC(F)CC3)c2n1 [Example 31, 2-Butyl-7-(6-(4-fluoropiperidin-1-yl)hexyl)-5H-pyrrolo[3,2-d]pyrimidin-4-amine]
4 | ≥ 5.01 | ≤ 5.01 | CCCCc1nc(N)c2[nH]cc(CCCCCN3CC[C@@H](F)C3)c2n1 [Example 24, (R)-2-Butyl-7-(5-(3-fluoropyrrolidin-1-yl)pentyl)-5H-pyrrolo[3,2-d]pyrimidin-4-amine]
5 | ≥ 5.01 | ≤ 5.01 | COCCc1nc(N)c2[nH]cc(CCCCCN3CC[C@H](F)C3)c2n1 [Example 27, (S)-7-(5-(3-Fluoropyrrolidin-1-yl)pentyl)-2-(2-methoxyethyl)-5H-pyrrolo[3,2-d]pyrimidin-4-amine formate]
6 | ≥ 5.01 | ≤ 5.01 | CCCCc1nc(N)c2[nH]cc(CCCCCN3CC(F)C3)c2n1 [Example 37, 2-Butyl-7-(5-(3-fluoroazetidin-1-yl)pentyl)-5H-pyrrolo[3,2-d]pyrimidin-4-amine]
7 | ≥ 5.01 | ≤ 5.01 | CCCCc1nc(N)c2[nH]cc(CCCCCN3CCC(F)CC3)c2n1 [Example 21, 2-Butyl-7-(5-(4-fluoropiperidin-1-yl)pentyl)-5H-pyrrolo[3,2-d]pyrimidin-4-amine]
8 | ≥ 5.01 | ≤ 5.01 | COCCc1nc(N)c2[nH]cc(CCCCCCN3CCCCCC3)c2n1 [Example 30, 7-(6-(Azepan-1-yl)hexyl)-2-(2-methoxyethyl)-5H-pyrrolo[3,2-d]pyrimidin-4-amine]

The remaining lines, values behind:

Row | Compound | EC50 (TNF-α) [µM] | EC50 (IFN-α) [µM]
9 | COCCc1nc(N)c2[nH]cc(CCCCCCN3CCCCC3)c2n1 [Example 5, 2-(2-Methoxyethyl)-7-(6-(piperidin-1-yl)hexyl)-5H-pyrrolo[3,2-d]pyrimidin-4-amine hydrochloride] | ≥ 5.01 | ≤ 5.01
10 | CCCCc1nc(N)c2[nH]c(C)c(CCCCCCN3CCCC3)c2n1 [Example 14, 2-Butyl-6-methyl-7-(6-(pyrrolidin-1-yl)hexyl)-5H-pyrrolo[3,2-d]pyrimidin-4-amine] | ≥ 5.01 | ≤ 5.01
11 | CCCCc1nc(N)c2[nH]c(C)c(CCCCCCN3CCC3)c2n1 [Example 15, 7-(6-(Azetidin-1-yl)hexyl)-2-butyl-6-methyl-5H-pyrrolo[3,2-d]pyrimidin-4-amine] | ≥ 5.01 | ≤ 5.01
12 | CCCCc1nc(N)c2[nH]c(C)c(CCCCN3CCCCCC3)c2n1 [Example 13, 7-(4-(Azepan-1-yl)butyl)-2-butyl-6-methyl-5H-pyrrolo[3,2-d]pyrimidin-4-amine] | ≥ 5.01 | ≤ 5.01
13 | CCCCc1nc(N)c2[nH]c(C)c(CCCCCN3CCC3)c2n1 [Example 18, 7-(5-(Azetidin-1-yl)pentyl)-2-butyl-6-methyl-5H-pyrrolo[3,2-d]pyrimidin-4-amine] | ≥ 5.01 | ≤ 5.01
